Values quoted from earlier work as cited in article PMC12675671 (Nature Communications, 2025).

Test system: WT LRRK2

- pIC50 (experimental values), WT: 8.509
SMILES: COc1cc(C(=O)N2CCC(N3CCN(C)CC3)CC2)ccc1Nc1ncc2c(n1)N(C)c1ccccc1C(=O)N2C [LRRK2-IN-1]
